A short description of series [1]: in vitro. As to conditions: rat, liver microsomes.
A short description of series [2]: in vitro. As to conditions: human, liver microsomes.
A short description of another series: in vivo. As to conditions: Sprague-Dawley, rat, iv, 5 mg/kg.

The values that follow come from ChEMBL document CHEMBL5241082, “Discovery and Characterization of Benzimidazole Derivative XY123 as a Potent, Selective, and Orally Available RORγ Inverse Agonist” (J Med Chem, 2021).

Consider `CCS(=O)(=O)c1ccc(CC(=O)Nc2ccc(-c3nc4ccc(C(F)(F)F)cc4n3[C@H](C)c3ccc(F)cc3)cc2)cc1`, for which the half-life at 1 µM came to 0.373 h in the series “in vitro [1]” and 0.0505 h in “in vitro [2]”. For the same molecule, the clearance at 24 h in “in vivo” was 3 mL/min/kg.
On the same counts, the results for `CCS(=O)(=O)c1ccc(CC(=O)Nc2ccc(-c3nc4ccc(C(F)(F)F)cc4n3[C@@H](C)c3ccc(F)cc3)cc2)cc1` are above 2 h, above 2 h and 3.33 mL/min/kg.
Consider `O=C(c1ccc(F)cc1)C1CCN(CCn2c(=O)[nH]c3ccccc3c2=O)CC1` [KETANSERIN], for which the half-life at 1 µM in the series “in vitro [1]” and in “in vitro [2]” was above 2 h throughout.
